“Also recorded” adds a separate entry of the source.
These compounds were tested on DG167-resistant M. tuberculosis mutants.
Assay type: cell-based
`COc1nc2ccc(Br)cc2cc1[C@@H](c1ccccc1)[C@@](O)(CCN(C)C)c1cccc2ccccc12` [BDQ, bedaquiline] was tested, and the “susceptibility of DG167-resistant mutants” value (from here on “susceptibility”) was “remained susceptible”.
For `CC[C@@H](CO)NCCN[C@@H](CC)CO` [EMB, ethambutol], the “susceptibility” value was “remained susceptible”.
In the case of `CCc1cc(C(N)=S)ccn1` [ETH, ethionamide], the “susceptibility” value is reported as “remained susceptible”.
In the case of `NNC(=O)c1ccncc1` [INH, isoniazid, reference compound], the “susceptibility” value is reported as “remained susceptible”.
`O=[N+]([O-])c1cn2c(n1)OC[C@@H](OCc1ccc(OC(F)(F)F)cc1)C2` [PA824] was tested, and the “susceptibility” value was “remained susceptible”.
For `CC(C)=CCC/C(C)=C/CNCCNC1C2CC3CC(C2)CC1C3` (stereo not shown) [SQ109], the “susceptibility” value was “remained susceptible”.

What follows are compounds tested on mycolic acid biosynthesis.
Assay type: cell-based, M. tuberculosis
`CCCCS(=O)(=O)Nc1ccc2cnn(C)c2c1` [DG167, N-(1-methyl-1H-indazol-6-yl)butane-1-sulfonamide] was tested, and the “inhibition of mycolic acid biosynthesis” value was “dose-dependent inhibition; also recorded: resistant to DG167-mediated inhibition of mycolic acid biosynthesis”.

— patent publication US12060330B2, “Therapeutic indazoles” (priority 2017, dated 2024)
